In patent US8597904B2, “Pharmaceutical compositions for the treatment of conditions responsive to proteasome inhibition” (priority 2007, dated 2013):

Columns and labels:
[1] = target: T1, human erythrocyte 20S proteasomes, chymotrypsin-like activity (Homo sapiens, UniProt P28074); type: biochemical; details: for inhibition of chymotrypsin-like activity: 37° C., 100 μM Suc-LLVY-AMC
T1 construct: which contains human erythrocyte 20S proteasomes; purchased BIOMOL International AK-740; host or cells: human erythrocytes
Protocol: A 100 μl reaction volume contained 2 μg/ml 20S proteasome, 100 μM substrate, and the desired concentrations of syringolin A in dilution buffer (50 mM Tris-HCl, pH 7.5, 25 mM KCl, 10 mM NaCl, 1 mM MgCl2). Epoximicin and MG132 (BIOMOL® International) were used as test inhibitors. The release of free AMC (7-amino-4-methylcoumarin) at 37° C. was monitored with an MWGt Sirius HT fluorescence microplate reader (BIO-TEK® Instruments) equipped with a 360 nm excitation and a 460 nm emission filter. Proteolytic activities were measured as the increase in relative fluorescence units (RFU) over time (FIG. 7A-C). […] The initial velocities (vi) were determined from the time derivative of these curves and plotted versus the corresponding inhibitor concentration ([I]). […] Using SigmaPlot, the data were fitted to the hyperbolic equation vi=c+[v0/(Ki′+[I])], where v0 is the velocity of the control. […] The rate of covalent inhibition (kassociation), which equals kobs/[I] was calculated over the range of inhibitor concentrations given in parentheses in FIG. 7D. Values in FIG. 7D represent means±standard deviation.
The fluorogenic substrates Suc-LLVY-AMC, Boc-LRR-AMC, and Z-LLE-AMC (BIOMOL® International) were used to monitor chymotrypsin-like, trypsin-like, and caspase-like activities, respectively. […] The release of free AMC (7-amino-4-methylcoumarin) at 37° C. was monitored with an MWGt Sirius HT fluorescence microplate reader (BIO-TEK® Instruments) equipped with a 360 nm excitation and a 460 nm emission filter.

[2] = target: T2, proteasome activity in SK-N-SH neuroblastoma cells (Homo sapiens, UniProt P28074); experiment: Proteasome-Glo cell-based luminescent assay
T2 construct: endogenous in cells; host or cells: SK-N-SH
T2 sequence (P28074 60-263): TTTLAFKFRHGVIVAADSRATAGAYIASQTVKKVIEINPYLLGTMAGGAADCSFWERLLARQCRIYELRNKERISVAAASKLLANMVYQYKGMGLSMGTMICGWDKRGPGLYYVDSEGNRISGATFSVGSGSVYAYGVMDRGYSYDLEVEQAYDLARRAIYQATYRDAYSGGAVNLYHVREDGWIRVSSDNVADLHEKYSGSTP
Protocol: Syringolin A was tested as a proteasome inhibitor in vivo in cultured mammalian cancer cells. Inhibition of proteasome activity in human SK-N-SH neuroblastoma cells was measured using the Proteasome-Glo™ cell-based luminescent assay (Promega) in solid white 96-well microtiter cell culture plates. Ten μl of syringolin A (at various concentrations) was added to each well containing SK-N-SH cells (plated at a concentration of 1.0×10^5 cells/ml in 90 μl well volumes 24 hours prior) and a negative control and media only control were included. Cells were incubated with 1-100 μM syringolin A for 2 hours or 24 hours, and then equilibrated to room temperature for 15 minutes before 100 μl of Proteasome-Glo reagent (containing bioluminescent substrate Suc-LLVY-aminoluciferin) was added to the cells. Luminescence (indicated as relative luminescence units [RLU]) was read after 15-30 minutes on a Dynex MLX Luminometer.
To trace the kinetics of proteasome inhibition in the presence of syringolin, the same experiment was performed, but in this case, 100 μl of Proteasome-Glo reagent was added to cells first, followed by the addition of syringolin A at various concentrations, and the proteasome activity was measured over time.
The cell culture-based proteasome inhibition assay was performed as previously described (Groll et al. 2008. Nature 452:755-758, which is incorporated herein by reference in its entirety). Briefly, wells of white-walled 96-well microtiter cell culture plates were seeded at a density of 1×10^4 cells/well (SK-N-SH) or 5×10^3 cells/well (SKOV3) in 90 μl. After 24 hours, 10 μl GlbA or SylA were added at increasing concentrations (0-100 μM) and incubated for 2 hours. […] Cell Death Differ 9:1017-1025; Meng, et al. 1999. PNAS 96:10403-10408, each of which is incorporated herein by reference in its entirety) were used as positive and negative controls, respectively. Microtiter plates were then equilibrated to room temperature for 15 min before adding 100 μl of proteasome Glo™ reagent (containing bioluminescent substrate Suc-LLVY-aminoluciferin) per well. Luminescence was measured on a Dynex MLX luminometer, according to the manufacturer's instructions (Promega).

[3] = system: SK-N-SH cells; experiment: Cytox-Glo cytotoxicity assay; type: cell-based, human; details: for cytotoxicity: 0.25 μM GlbA or 25 μM SylA, 48 hours; for cytotoxicity in the presence of 3-MA: pre-treated with 3-MA
Protocol: Determination of potential cytotoxic effects by GlbA and/or […] was carried out by using the Cytox-Glo cytotoxicity assay, which measures “dead cell proteases” from cells that have lost membrane integrity. Briefly, cells were treated with a single concentration of compound for 48 hours in a final volume of 100 μl, after which 50 μl of AAF-Glo luminogenic peptide substrate (alanyl-alanyl-phenylalanyl-aminoluciferin) was added to each well and incubated for 15 min at room temperature. The luminescence was measured by a Dynex MLX luminometer to give a reading of cells with damaged membranes. Next, 50 μl of digitonin was added to each well and the samples incubated for 15 minutes at room temperature. Luminescence was measured a second time to determine total cell number. Controls included cells with vehicle only, media, and media with compound.
SK-N-SH cells were treated with 0.25 μM GlbA or 25 μM SylA and SKOV3 cells were treated with 1.0 μM GlbA or 25 μM SylA. As illustrated in FIGS. 16A and 16B, control cells (treated with DMSO and H2O representing GlbA and SylA controls, respectively) were viable and no cytotoxicity was detected.
To determine if autophagy plays a role in GlbA/SylA-induced cell death, levels of cytotoxicity in cells pre-treated with 3-methyladenine (3-MA), an established autophagy inhibitor, were measured using the assay described in Example 12.

| SMILES | inhibition of chymotrypsin-like activity [1] | mode of proteasome inhibition (reaction velocity over time) ([1]; FIG. 7A) | proteasome activity in cells ([2]; 2 hours incubation) | kinetics of proteasome inhibition in cells ([2]; reagent added first, activity measured over time) | cytotoxicity [3] | cytotoxicity in the presence of 3-MA [3] | IC50 ([2]; 2 hours, read-out: IC50 of proteasomal activity) [µM] | potency of GlbA relative to SylA ([2]; ratio of IC50) |
| --- | --- | --- | --- | --- | --- | --- | --- | --- |
| CC(C)[C@H](NC(=O)N[C@H](C(=O)N[C@H]1/C=C/CCNC(=O)/C=C/[C@H](C(C)C)NC1=O)C(C)C)C(=O)O [syringolin A] | inhibited | irreversible proteasome inhibitor | dose-dependent decrease of proteasome activity | inhibited proteasome activity in a time and dose-dependent manner in the micromolar range | ~30% | significantly reduced | – | – |
| CCCCCCC/C=C/C=C/C(=O)N[C@H](C(=O)N[C@H]1C[C@@H](O)CCNC(=O)/C=C/[C@H](C)NC1=O)[C@@H](C)O [glidobactin A] | blocked the chymotrypsin-like activity irreversibly at low concentrations | – | – | – | about 40% | significantly reduced | 0.055 | approximately 26 fold |
